“Also recorded” adds a separate entry of the source. Numbered stars: 1 amine (or outer) side, 2 acyl side, 3 side chain; on linkers, the order of the positions; unused ones are H or OH. Side chains are listed from the residue outwards. Peptide text beside a SMILES is read from it. * marks the point of attachment. C18 diacid = O=C(O)CCCCCCCCCCCCCCCCC(=O)*; γGlu = O=C(O)[C@H](CCC(=O)[*:2])N[*:1]; Fumaroyl = O=C(O)/C=C/C(=O)*; Lauroyl = CCCCCCCCCCCC(=O)*; AEEA = NCCOCCOCC(=O)O
Tests used:
[1] = Determination of half-lives of polypeptides (plasma, LC-MS); conditions: for half-life: C57 BL/6, mouse, plasma, iv
in vivo = conditions: male, SD, rat, in vivo, iv
Description: (§1) In an experiment about acute toxicity of intravenous administration, male SD rats weighing 200-230 g were dosed in a range between 480 µg/Kg and 30 µg/Kg via tail vein injection in a descending order of dosage. […] Toxic response and mortality of the rats were preliminarily observed, and time of death and doses without mortality of the rats were recorded. The level of acute toxicity of the polypeptides was preliminarily determined based on the doses without mortality.

male SD rats = test: in vivo; conditions: for Observations of Animal Status: one animal per row, observed 24 hours
Description: as §1

human ETA receptor = biological target: T1, human ETA receptor (Homo sapiens, UniProt P25101); test: Selectivity of polypeptides on human ETA receptor (IP-One Gq kit, % of positive control ET1); assay type: cell-based; conditions: read-out: hETAR agonist activity, percentage of activity relative to ET1
T1 construct: expressed in transfected cells; host or cells: 293T-17 cells, transient transfection
T1 sequence (P25101 21-427): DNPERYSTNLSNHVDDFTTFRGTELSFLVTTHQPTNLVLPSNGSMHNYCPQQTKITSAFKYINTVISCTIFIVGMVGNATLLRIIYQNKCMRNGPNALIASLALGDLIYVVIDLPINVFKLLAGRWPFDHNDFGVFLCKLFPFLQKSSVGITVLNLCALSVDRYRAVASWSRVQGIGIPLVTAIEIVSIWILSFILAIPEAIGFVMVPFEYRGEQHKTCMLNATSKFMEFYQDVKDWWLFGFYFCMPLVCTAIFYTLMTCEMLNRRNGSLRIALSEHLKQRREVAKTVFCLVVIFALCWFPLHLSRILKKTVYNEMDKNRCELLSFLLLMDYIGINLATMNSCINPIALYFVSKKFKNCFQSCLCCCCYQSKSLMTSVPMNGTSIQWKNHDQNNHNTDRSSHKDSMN
How it was run: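 293T-17 cells transiently transfected with human ETA receptor (48 h), 30,000 cells/well exposed to polypeptides for 1 h at 37°C; IP1 accumulation by HTRF (665/620 nm ratio). Activity given as % of ET1 at the same concentration after PBS-control subtraction.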

[2] = intravenous (tail vein) 120 µg/Kg
[3] = intravenous (tail vein) 240 µg/Kg
[4] = intravenous (tail vein) 480 µg/Kg
[5] = intravenous (tail vein) 360 µg/Kg

CCCCCCCCCCCC(=O)N[C@@H](CCC(=O)O)C(=O)NCCOCCOCC(=O)NCCCC[C@H](NC(=O)[C@H](Cc1c[nH]cn1)NC(=O)[C@H](C)NC(=O)[C@H](Cc1ccccc1)NC(=O)[C@H](Cc1ccc(O)cc1)NC(=O)[C@@H](NC(=O)[C@H](C)NC(=O)[C@H](CCC(=O)O)NC(=O)[C@H](CCC(=O)O)NC(=O)[C@H](CC(=O)O)NC(=O)/C=C/C(=O)O)C(C)C)C(=O)N[C@@H](CC(=O)O)C(=O)N[C@H](C(=O)N[C@H](C(=O)N[C@@H](Cc1c[nH]c2ccccc12)C(=O)O)[C@@H](C)CC)C(C)C [BX-238] (Fumaroyl-DEEAVYFAHK([AEEA-Glu-Lauroyl])DVIW-OH)
half-life [1]: 53 min
MTD at 24 h (in vivo): 0.03 mg/kg
Observations of Animal Status (male SD rats; intravenous (tail vein) 30 µg/Kg): Breathing speeded up at 53 minutes, showed no willingness to move at 1.2 hours; found dead the next morning (estimated to have died during the night); also recorded: Breathing speeded up at 50 minutes, showed no willingness to move at 1.2 hours; found dead the next morning (estimated to have died during the night)
Observations of Animal Status (male SD rats; intravenous (tail vein) 60 µg/Kg): Developed rapid breathing at 40-45 minutes; died at 1 hour
Observations of Animal Status (male SD rats; [2]): Developed rapid breathing at 5 minutes, the eyes turned pale and purple at 14 minutes; died at 16 minutes
Observations of Animal Status (male SD rats; [3]): Developed abdominal breathing at 5-6 minutes, developed rapid breathing and collapsed at 9 minutes; died at 11 minutes
activation at 10 µM (human ETA receptor): -4.74%
activation at 100 µM (human ETA receptor): -5.07%

CC[C@H](C)[C@H](NC(=O)[C@H](CC(=O)O)NC(=O)[C@H](CC(C)C)NC(=O)[C@H](Cc1c[nH]cn1)NC(=O)[C@H](C)NC(=O)[C@H](Cc1ccccc1)NC(=O)[C@H](Cc1ccc(O)cc1)NC(=O)[C@@H](NC(=O)[C@H](C)NC(=O)[C@H](CCC(=O)O)NC(=O)[C@H](CCC(=O)O)NC(=O)[C@H](CCCCNC(=O)COCCOCCNC(=O)COCCOCCNC(=O)CC[C@H](NC(=O)CCCCCCCCCCCCCCCCC(=O)O)C(=O)O)NC(=O)/C=C/C(=O)O)C(C)C)C(=O)N[C@H](C(=O)N[C@@H](Cc1c[nH]c2ccccc12)C(=O)O)[C@@H](C)CC [BX-253] (Fumaroyl-K([AEEA-AEEA-γGlu-C18 diacid])EEAVYFAHLDIIW-OH)
half-life [1]: 63 min
AUClast 0-30 min ([1]; C57 BL/6 mice, i.v., dosage per compound 0.48, 0.96 or 1 mpk): 3989 ng·h/mL
MTD at 24 h (in vivo): 0.48 mg/kg
Observations of Animal Status (male SD rats; [3]): No abnormalities
Observations of Animal Status (male SD rats; [4]): No abnormalities
acute toxicity of intravenous administration (comparison among polypeptides) (male SD rats; male SD rats, tail vein injection): lowest acute toxicity
activation at 10 µM (human ETA receptor): -12.9%
activation at 100 µM (human ETA receptor): -9.03%

CC[C@H](C)[C@H](NC(=O)[C@H](CC(=O)O)NC(=O)[C@H](CC(C)C)NC(=O)[C@H](Cc1c[nH]cn1)NC(=O)[C@H](C)NC(=O)[C@H](Cc1ccccc1)NC(=O)[C@H](Cc1ccc(O)cc1)NC(=O)[C@@H](NC(=O)[C@H](C)NC(=O)[C@H](CCC(=O)O)NC(=O)[C@H](CCCCNC(=O)COCCOCCNC(=O)COCCOCCNC(=O)CC[C@H](NC(=O)CCCCCCCCCCCCCCCCC(=O)O)C(=O)O)NC(=O)[C@H](CC(=O)O)NC(=O)/C=C/C(=O)O)C(C)C)C(=O)N[C@H](C(=O)N[C@@H](Cc1c[nH]c2ccccc12)C(=O)O)[C@@H](C)CC [BX-254] (Fumaroyl-DK([AEEA-AEEA-γGlu-C18 diacid])EAVYFAHLDIIW-OH)
MTD at 24 h (in vivo): 0.12 mg/kg
Observations of Animal Status (male SD rats; [3]): No obvious abnormalities; also recorded: Developed rapid breathing, the limbs turned purple, developed breathing depression, and limbs moved like swimming at 15 minutes after administration; then died at 20 minutes after administration; also recorded: Developed rapid breathing, the limbs turned purple, and had weak limbs at 14 minutes after administration; died of breathing depression at 21 minutes after administration
Observations of Animal Status (male SD rats; [5]): The body turned purple at 16 minutes after administration; died at 26 minutes after administration
Observations of Animal Status (male SD rats; [4]): The body turned purple at 22 minutes after administration; died at 25 minutes after administration

CC[C@H](C)[C@H](NC(=O)[C@H](CC(=O)O)NC(=O)[C@H](CC(C)C)NC(=O)[C@H](Cc1c[nH]cn1)NC(=O)[C@H](C)NC(=O)[C@H](Cc1ccccc1)NC(=O)[C@H](Cc1ccc(O)cc1)NC(=O)[C@@H](NC(=O)[C@H](C)NC(=O)[C@H](CCC(=O)O)NC(=O)[C@H](CCC(=O)O)NC(=O)[C@H](CC(=O)O)NC(=O)[C@H](CC(=O)O)NC(=O)COCCOCCNC(=O)COCCOCCNC(=O)CC[C@H](NC(=O)CCCCCCCCCCCCCCCCC(=O)O)C(=O)O)C(C)C)C(=O)N[C@H](C(=O)N[C@@H](Cc1c[nH]c2ccccc12)C(=O)O)[C@@H](C)CC [BX-255] ({C18 diacid-γGlu-AEEA-AEEA}-DDEEAVYFAHLDIIW-OH)
MTD at 24 h (in vivo): 0.12 mg/kg
Observations of Animal Status (male SD rats; [2]): No obvious adverse reactions in the first 1 hour; breathing became slightly faster at nearly 2 hours; was in good condition and recovered when observed the next day; also recorded: Showed no willingness to move at 9 minutes; recovered at 1 hour and 10 minutes; also recorded: Lay still and showed no willingness to move at 12 minutes; became active at 17 minutes; signs of pain were observed in the animal through pupil observation; no pain at 28 minutes; also recorded: Developed difficulty in breathing at 17 minutes, recovered to normal in about 10 seconds; signs of pain were observed in the animal through pupil observation; no pain at 28 minutes
Observations of Animal Status (male SD rats; [3]): No obvious reaction in the first 27 minutes after administration; breathing speeded up at 27 minutes; died at 49 minutes after administration; also recorded: No obvious reaction in the first 24 minutes after administration; breathing speeded up at 27 minutes; died at 43 minutes after administration
Observations of Animal Status (male SD rats; [5]): The body turned purple at 12 minutes after administration; died at 22 minutes after administration
Observations of Animal Status (male SD rats; [4]): The body turned purple at 23 minutes after administration; died at 29 minutes after administration
